Experimental data taken from patent publication US8604030B2, “Fused piperidine compound and pharmaceutical containing same” (Kowa Company, Ltd., priority 2009, dated 2013).

Key:
[1] = system: Human hepatocellular carcinoma cell line HepG2; assay: EPO production in HepG2 culture supernatant (ELISA), 48 hours at 4% oxygen; format: cell-based; conditions: oxygen concentration 4%, 100% = EPO produced in non-stimulated state without compound; for activity at 10 µM: test compound 10 μM, read-out: % of Control (10 μM), produced amount of EPO; for activity at 3 µM: test compound 3 μM, read-out: % of Control (3 μM), produced amount of EPO
Experimental: Human hepatocellular carcinoma cell line HepG2 was inoculated in aliquots of 5×10^4 cells each into each of the wells of a 48-well plate using minimum essential medium (MEM, Sigma) containing 10% fetal bovine serum. On the following day, the medium was replaced with Dulbecco's Modified Eagle Medium (DMEM, Sigma) not containing phenol red but containing 10% fetal bovine serum followed by the addition of a test compound dissolved in DMSO to a final concentration of 3 μM or 10 and bringing to a final media volume of 400 μl per well. After incubating for 48 hours in a CO2 incubator having an oxygen concentration of 4%, the culture supernatant was recovered. The concentration of EPO in the culture supernatant was measured immediately using an ELISA kit (Roche Diagnostics). The procedure used complied with that described in the instructions.
The produced amount of EPO derived from each compound was determined based on a value of 100% for the amount of EPO produced in a non-stimulated state in the absence of addition of a compound (% of control).

[2] = system: Human proerythroblast cell line K562; assay: Hemoglobin production in K562 cells (porphyrin ring fluorescence); format: cell-based; conditions: 72 h, test compound 6 μM, 3 days + 3 days after medium replacement, 3×10^5 cells, 100% = hemoglobin produced in non-stimulated state without compound, read-out: % of Control (6 μM), amount of hemoglobin produced
Experimental: Human proerythroblast cell line K562 (acquired from ATCC) was inoculated in aliquots of 1×10^5 cells/mL into each of the wells of a 24-well plate using complete medium (RPMI-1640 medium containing 10% fetal bovine serum), followed by the addition of the test compounds at a final concentration of 6 μM and incubating for 3 days in a CO2 incubator (37° C., 5% CO2). Culturing was continued for an additional 3 days after replacing the medium. The cells were then collected and counted followed by unifying to a cell count of 3×10^5 cells and determining the amount of hemoglobin produced in the cells by measuring the fluorescence of the porphyrin ring. Namely, the cells collected by centrifugation were suspended in 500 μL of 2 M oxalic acid, and boiled for 30 minutes and allowed to cool, followed by measuring fluorescence intensity with a fluorescent microplate reader (Spectra MAX Gemini EM, MDC Japan, Inc.) ([…]). The amount of hemoglobin induced to be produced by each compound was determined based on a value of 100% for the amount of hemoglobin produced in a non-stimulated state in the absence of addition of a compound (% of control).

Row | Structure (SMILES) | activity at 10 µM [1] [%] | activity at 6 µM [2] [%] | activity at 3 µM [1] [%]
1 | CC(=O)N1c2c(ccc3ccccc23)[C@H](Nc2ccc(Cl)cc2)C[C@@H]1C (relative stereo) [Compound 5, cis-1-acetyl-4-[(4-chlorophenyl)amino]-2-methyl-1,2,3,4-tetrahydro-benzo[h]quinoline] | 183 | – | –
2 | CC(=O)N1c2ccc3[nH]cnc3c2C(Nc2ccc(Cl)cc2)CC1C (stereo not drawn) [Compound 8, Cis-1-acetyl-9-[(4-chlorophenyl)amino]-7-methyl-6,7,8,9-tetrahydro-1H-imiazo[4,5-f]quinoline] | 104 | 185 | –
3 | CC(=O)N1c2cc3c(cc2[C@H](Nc2ccc(Cl)cc2)C[C@@H]1C)OCO3 (relative stereo) [Compound 10, cis-1-[8-(4-chlorophenylamino)-6-methyl-7,8-dihydro-[1,3]dioxolo[4,5-g]quinolin-5(6H)-yl]ethanone] | 191 | 520 | –
4 | CC(=O)N1c2cccnc2[C@H](Nc2ccc(Cl)cc2)C[C@@H]1C (relative stereo) [Compound 3, cis-1-acetyl-4-[(4-chlorophenyl)amino]-2-methyl-3,4-dihydro-2H-[1,5]-naphthyridine] | – | 105 | 153
5 | CC(=O)N1c2cc3c(cc2C(Nc2ccc(Cl)cc2)CC1C)OCCO3 (centres unmarked) [Compound 11, 6-acetyl-9-[(4-chlorophenyl)amino]-7-methyl-2,3,6,7,8,9-hexahydro-[1,4]dioxano[2,3-g]quinoline] | 190 | 302 | –
6 | CC(=O)N1c2ccc3[nH]ccc3c2[C@H](Nc2ccc(Cl)cc2)C[C@@H]1C (relative stereo) [Compound 7, cis-6-acetyl-9-(4-chlorophenylamino)-7-methyl-6,7,8,9-tetrahydro-3H-pyrrolo[3,2-f]quinoline] | 137 | 436 | –
7 | CC(=O)N1c2ccc3oc(=O)ccc3c2[C@H](Nc2ccc(Cl)cc2)C[C@@H]1C (relative stereo) [Compound 9, cis-7-acetyl-10-(4-chlorophenylamino)-8-methyl-7,8,9,10-tetrahydro-3H-pyrano[3,2-f]-quinolin-3-one] | 116 | 166 | –
8 | CC(=O)N1c2ccncc2[C@H](Nc2ccc(Cl)cc2)C[C@@H]1C (relative stereo) [Compound 2, cis-1-acetyl-4-[(4-chlorophenyl)amino]-2-methyl-3,4-dihydro-2H-[1,6]-naphthyridine] | – | 249 | 392
9 | CC(=O)N1c2ncccc2[C@H](Nc2ccc(Cl)cc2)C[C@@H]1C (relative stereo) [Compound 1, cis-1-acetyl-4-[(4-chlorophenyl)amino]-2-methyl-3,4-dihydro-2H-[1,8]-naphthyridine] | – | 197 | 416
10 | CC(=O)N1c2cc3c(cc2C(Nc2ccc(Cl)cc2)CC1C)OCC(=O)N3 (stereo not drawn) [Compound 12, cis-6-acetyl-9-(4-chlorophenylamino)-7-methyl-6,7,8,9-tetrahydro-2H-[1,4]oxazino[2,3-g]quinolin-3-(4H)-one] | 103 | – | –
11 | CC(=O)N1c2ccsc2C(Nc2ccc(Cl)cc2)CC1C (centres unmarked) [Compound 4, 1-(7-(4-chlorophenylamino)-5-methyl-6,7-dihydrothieno[3,2-b]pyridine-4(5H)-yl)ethanone] | – | 135 | 137
